Source: BindingDB's records for doi:10.1016/j.ejmech.2021.113764 (China Pharmaceutical University, 2021)

Assay: Antagonist activity at PAR4 in human platelet-rich plasma assessed as inhibition of PAR4 AP AYPGKF-NH2-induced platelet aggregation by photo-turbidimetry assay

| IC50 [µM] | Structure (SMILES) |
| --- | --- |
| 0.078 | COc1cc(F)c2nc(-c3cc(C)cc4c(=O)n(C)cnc34)sc2c1 |
| 0.107 | CCOCn1cnc2c(-c3nc4c(Cl)cc(OC)cc4s3)cc(C)cc2c1=O |
| 0.0066 | Cc1cc(-c2nc3c(Cl)cc(OCCNS(=O)(=O)c4ccc(C(F)(F)F)cc4)cc3s2)c2ncn(C)c(=O)c2c1 |
| 0.02 | COc1cc(Cl)c2nc(-c3cc(C)cc4c(=O)n(C)cnc34)sc2c1 |
| 0.04 | CCc1cc(-c2nc3c(Cl)cc(OC)cc3s2)c2ncn(C)c(=O)c2c1 |
| 0.029 | Cc1cc(-c2nc3c(s2)CCCC3)c2ncn(C)c(=O)c2c1 |
| 0.174 | Cc1cc(-c2ccc(Cl)cc2Cl)c2ncn(C)c(=O)c2c1 |

Assay: Antagonist activity at PAR4 in ICR mouse platelet-rich plasma assessed as inhibition of PAR4 AP AYPGKF-NH2-induced platelet aggregation by photo-turbidimetry assay

| IC50 [µM] | Structure (SMILES) |
| --- | --- |
| > 10 | COc1cc(Cl)c2nc(-c3cc(C)cc4c(=O)n(C)c(C(C)C)nc34)sc2c1 |
| 0.83 | COc1cc(F)c2nc(-c3cc(C)cc4c(=O)n(C)cnc34)sc2c1 |
| 2.32 | COCn1cnc2c(-c3nc4c(s3)CCCC4)cc(C)cc2c1=O |
| > 10 | Cc1cc(-c2nc3c(Cl)cc(OCCNC(=O)c4ccccc4)cc3s2)c2ncn(C)c(=O)c2c1 |
| 3.64 | Cc1cc(-c2nccs2)c2ncn(C)c(=O)c2c1 |
| 5.45 | COc1cc(F)c2nc(-c3cc(C)cc4c(=O)n(C)c(C)nc34)sc2c1 |
| 7.32 | COc1ccccc1-c1cc(C)cc2c(=O)n(C)cnc12 |
| 0.65 | CCOCn1cnc2c(-c3nc4c(Cl)cc(OC)cc4s3)cc(C)cc2c1=O |
| 1 | COCn1cnc2c(-c3nc4c(Cl)cc(OC)cc4s3)cc(C)cc2c1=O |
| 0.52 | Cc1ccc(S(=O)(=O)NCCOc2cc(Cl)c3nc(-c4cc(C)cc5c(=O)n(C)cnc45)sc3c2)cc1 |
| > 10 | Cc1cc(-c2ccc(F)cc2O)c2ncn(C)c(=O)c2c1 |
| 7.61 | Cc1cn2nc(-c3cccc4ccoc34)sc2n1 |
| 5.34 | COc1cc(F)c2nc(-c3cccc4c(=O)n(C)cnc34)sc2c1 |
| 2.52 | Cc1cc(-c2nc3c(Cl)cc(OCCNS(=O)(=O)c4ccccc4)cc3s2)c2ncn(C)c(=O)c2c1 |
| 3 | Cc1cc(-c2nn3ccnc3s2)c2ccn(C)c(=O)c2c1 |
| 2.09 | COc1cc(Cl)c2nc(-c3cc(C)cc4c(=O)n(C)c(C)nc34)sc2c1 |
| 9.77 | COc1cc(Cl)c2nc(-c3cc(C)cc4c(=O)n(C(C)C)cnc34)sc2c1 |
| > 10 | COc1cc(Cl)c2nc(-c3cc(C)cc4c(=O)n(Cc5ccccc5)cnc34)sc2c1 |
| > 10 | Cc1cc2c(c(-c3nn4ccnc4s3)c1)CCN(C)C2=O |
| 3.7 | Cc1cc(-c2cccc(Cl)c2Cl)c2ncn(C)c(=O)c2c1 |
| 3.54 | CCc1cc(-c2nc3c(s2)CCCC3)c2ncn(C)c(=O)c2c1 |
| 1.84 | COc1cc(Cl)c2nc(-c3cc(C)cc4c3CCN(C)C4=O)sc2c1 |
| > 10 | Cc1cc(-c2ccccc2)c2ncn(C)c(=O)c2c1 |
| 8.21 | Cc1cc(-c2nc3c(s2)CCCC3)c2nc(C)n(C)c(=O)c2c1 |

| IC50 [µM] | Structure (SMILES) |
| --- | --- |
| 10 | COCc1cc2ccc(OC)c(-c3nn4cc(C)nc4s3)c2o1 |
| > 10 | Cc1cc(-c2ccccc2C#N)c2ncn(C)c(=O)c2c1 |
| > 10 | Cc1cc(-c2cccnc2)c2ncn(C)c(=O)c2c1 |
| 8.7 | Cc1cc2c(c(-c3nn4cc(C)nc4s3)c1)CCN(C)C2=O |
| > 10 | Cc1ccc(-c2cc(C)cc3c(=O)n(C)cnc23)cc1 |
| > 10 | Cc1cc(-c2ccc3ccccc3n2)c2ncn(C)c(=O)c2c1 |
| > 10 | Cc1cc(-c2nc3c(Cl)cc(OCCNS(C)(=O)=O)cc3s2)c2ncn(C)c(=O)c2c1 |
| 0.94 | CSc1nn2cc(-c3cc4ccccc4o3)nc2s1 [US9862730, Example 1] |
| 1.63 | COCc1nc2cc(C)cc(-c3nc4c(Cl)cc(OC)cc4s3)c2[nH]1 |
| 0.17 | Cc1cc(-c2nc3c(Cl)cc(OCCNS(=O)(=O)c4ccc(C(F)(F)F)cc4)cc3s2)c2ncn(C)c(=O)c2c1 |
| > 10 | Cc1cc(-c2cccc3ccccc23)c2ncn(C)c(=O)c2c1 |
| 5.57 | Cc1cc(-c2nc3c(Cl)cc4c(c3s2)OCCO4)c2ncn(C)c(=O)c2c1 |
| 3.74 | CCn1cnc2c(-c3nc4c(s3)CCCC4)cc(C)cc2c1=O |
| 10 | COCc1cc2ccc(OC)c(-c3nn4ccnc4s3)c2o1 |
| 1.82 | Cc1nn2cc(-c3cc4ccccc4o3)nc2s1 [US9862730, Example 41] |
| 4.77 | CCOCn1cnc2c(-c3nc4c(s3)CCCC4)cc(C)cc2c1=O |
| 7.04 | CCCCc1cc(-c2nc3c(s2)CCCC3)c2ncn(C)c(=O)c2c1 |
| 6.78 | COc1cc(Cl)c2nc(-c3cccc4c(=O)n(C)cnc34)sc2c1 |
| 8.22 | Cc1cc(-c2nc3c(Cl)cc(OCCNS(=O)(=O)c4ccc(F)cc4)cc3s2)c2ncn(C)c(=O)c2c1 |
| 1.38 | Cc1cc(-c2nc3c(s2)CCCC3)c2nc[nH]c(=O)c2c1 |
| 3.21 | Cc1cc(-c2nn3cc(C)nc3s2)c2ccn(C)c(=O)c2c1 |
| 6.28 | CCCCc1cc(-c2nc3c(s2)CCCC3)c2ncn(CC)c(=O)c2c1 |
| 2.07 | Cc1cc(-c2nc3c(Cl)cc(OCCNC(=O)OC(C)(C)C)cc3s2)c2ncn(C)c(=O)c2c1 |
| 1.85 | CCn1cnc2c(-c3nc4c(Cl)cc(OC)cc4s3)cc(C)cc2c1=O |

| IC50 [µM] | Structure (SMILES) |
| --- | --- |
| > 10 | Cc1cc(-c2ccccc2C)c2ncn(C)c(=O)c2c1 |
| > 10 | Cc1cc(-c2nc3c(Cl)cc(OCCNS(=O)(=O)c4ccc(-c5ccccc5)cc4)cc3s2)c2ncn(C)c(=O)c2c1 |
| 0.16 | CCc1cc(-c2nc3c(Cl)cc(OC)cc3s2)c2ncn(C)c(=O)c2c1 |
| 2.62 | Cc1cc(-c2nc3c(Cl)cc(Cl)cc3s2)c2ncn(C)c(=O)c2c1 |
| > 10 | Cc1cc(-c2nc3c(s2)CCCC3)c2ncn(C(C)C)c(=O)c2c1 |
| 4.26 | Cc1cc(-c2cc3ccccc3o2)c2ncn(C)c(=O)c2c1 |
| 0.95 | Cc1cc(-c2nc3c(Cl)cc(OCCNS(=O)(=O)c4ccc(Cl)cc4Cl)cc3s2)c2ncn(C)c(=O)c2c1 |
| 6.74 | COc1cc(F)c2nc(-c3cc(C)cc4c(=O)n(C(C)C)cnc34)sc2c1 |
| 0.79 | COCc1cnc2c(-c3nc4c(Cl)cc(OC)cc4s3)cc(C)cc2n1 |
| 3.02 | Cc1cc(-c2nc3c(Cl)cc(OCCN)cc3s2)c2ncn(C)c(=O)c2c1 |
| 1.38 | CCCCc1cc(-c2nc3c(Cl)cc(OC)cc3s2)c2ncn(C)c(=O)c2c1 |
| 3.44 | COCc1cc2cc(C)cc(-c3nn4ccnc4s3)c2o1 |
| 3.13 | COCc1nc2cc(C)cc(-c3nn4cc(C)nc4s3)c2[nH]1 |
| 5.48 | Cc1cc(-c2ccccc2F)c2ncn(C)c(=O)c2c1 |
| 0.11 | Cc1cc(-c2nc3c(s2)CCCC3)c2ncn(C)c(=O)c2c1 |
| 4.82 | COCc1cc2cc(C)cc(-c3nn4cc(C)nc4s3)c2o1 |
| 0.98 | COc1cc(Cl)c2nc(-c3cc(C)cc4c(=O)n(C)ccc34)sc2c1 |
| 1.22 | Cc1cc(-c2ccc(Cl)cc2Cl)c2ncn(C)c(=O)c2c1 |
| 4.2 | C#CCn1cnc2c(-c3nc4c(F)cc(OC)cc4s3)cc(C)cc2c1=O |
| > 10 | CCc1cc(-c2nc3c(s2)CCCC3)c2ncn(CC)c(=O)c2c1 |
| 2.61 | Cn1cnc2c(-c3nc4c(s3)CCCC4)cccc2c1=O |
| 1.04 | Cc1cc(-c2nc3c(Cl)cc(OCCNS(=O)(=O)c4ccc(Cl)cc4)cc3s2)c2ncn(C)c(=O)c2c1 |
| 9.95 | CCn1cnc2c(-c3nc4c(F)cc(OC)cc4s3)cc(C)cc2c1=O |
